Test results as given in EP0335134B1, “Mouse monoclonal antibody to human immunodeficiency virus gp41 protein” (ABBOTT LABORATORIES, priority 1988, dated 1989).

Legend:
[1] = system: Rabbit (R) anti-P58-130 serum; assay: Immunoprecipitation of 125I synthetic peptides by rabbit anti-P58-130 serum; type: binding
Experimental: (§1) Synthetic peptides were radiolabeled with¹²⁵I (Amersham) by the chloramine T method (W.M. Hunter, "Radioimmunoassay" in D.M. Weir, Ed., Handbook of Experimental Immunology, [Blackwell Scientific Publications, 1973]). Generally, 2-6 ul of 100 mCi/ml ¹²⁵I were added to 10-50 ug of peptide in PBS, pH 7.4. Approximately 10 ug of freshly prepared (1 mg/ml in PBS) chloramine T were added to the mixture maintained at 4°C. After 5 min., [¹²⁵I]peptide was separated from free ¹²⁵I by passage of the reaction mixture through a 3 ml (bed volume) column of Biogel P-6 or P-2, as required. Fractions (200 ul each) containing [¹²⁵I]peptide were pooled and diluted into PBS containing 20% fetal calf serum. Rough estimations of¹²⁵I cpm bound to peptide were made by acid precipitation. An aliquot of labeled peptide was diluted into 1 ml of ice cold 50% trichloroacetic acid (TCA) overlaying a 0.45 um filter (made of mixed cellulose esters) set on a scintered glass filter connected to a vacuum apparatus. Precipitated protein was fixed onto the filter by application of vacuum, and filters were washed with ice-cold 50% TCA. Background cpm adhering non-specifically to the filter were estimated by repeating the procedure using a non-precipitating buffer. Amounts of peptide, ¹²⁵I, chloramine T, and composition of column eluting buffer were subject to change depending on conditions required to maintain solubility of each peptide.
Synthetic peptides radiolabeled with¹²⁵I were diluted into PBS (pH 7.4) containing 0.1% Triton X-100 (or other detergents where indicated) and 1.0% BSA, to yield approximately 2.5-5 X 10⁵ acid-precipitable cpm per 0.1 ml. Purified monoclonal IgG 5-21-3 and 10-15-63 were employed in the assay. Monoclonal antibodies were diluted into PBS containing 0.1% Triton X-100 (or other detergents where indicated), 1.0% BSA, and 2% normal mouse serum as a carrier immunoglobulin. […] The precipitate was collected by centrifugation (2,000 x g, 5 min., 20°C), washed once in PBS containing 0.1% Triton X-100 and 1.0% BSA, collected by centrifugation, and counted in an LKB 128 gamma counter. […]

[2] = system: Binding of Antibody 5-21-3 to rp41; assay: Binding inhibition assay: peptides blocking 5-21-3 binding to rp41; set-up: species or system mouse
Experimental: Additional evidence for the conformational nature of the 5-21-3 epitope was obtained using binding inhibition studies, in which synthetic peptides were ranked for their ability to inhibit binding of 5-21-3 to rp41. First, the Fab dimer of an anti-gp41 monoclonal antibody was prepared by conventional methods (Goding et al., supra). Then 100 ul of a 1 mg/ml solution of the Fab dimer in bicarbonate buffer (pH 9.6) was coated onto Immulon II microtiter plates for 1 hr at 37°C. After washing with PBS containing 0.05% Tween 20, the plates were overcoated with 200 ul of 1.0% ovalbumin in bicarbonate buffer (pH 9.6) for 1 hr at 30°C. After washing, 100 ul of rp41 enriched E. coli lysate (as described in Example 3), diluted appropriately in PBS containing 0.05% Tween 20, were allowed to bind to the Fab dimer for 2 hr at 30°C. The plates were washed and stored at 4°C.
Intact monoclonal antibody 5-21-3 IgG (purified from tissue culture fluid supporting growth of the cloned cell line 5-21-3) was titrated against the bound rp41 on the plate, and an antibody concentration was selected which yielded an A₄₉₂ value of 2.0-3.0. Usually, 0.4 pmol (0.06 ug) of 5-21-3 IgG per microtiter well was employed in these assays. Stock solutions of 5-21-3 IgG were prepared in PBS containing 0.1% Triton X-100 and 0.1% SDS. Dilutions of synthetic peptides were made in the same buffer (SDS was included in these experiments to keep peptides soluble at high concentrations).
The binding inhibition assay was performed by combining 0.15 ml of 1.2 ug/ml 5-21-3 antibody stock solution with 0.15 ml of peptide at a selected peptide concentration, and incubating the reaction mixture 1 hr at room temp. Then 0.1 ml aliquots of each reaction mixture were added to each of two wells in the microtiter tray. After a 1 hr incubation at room temp., the plates were washed, and HRPO conjugated Goat anti-mouse IgG Fc was added for 1 hr at room temp. The plates were washed, and addition of OPD for color development identified the relative amounts of 5-21-3 bound to rp41 in the microtiter wells. The reaction was stopped by addition of 100 ul of 1N H₂S0₄, and the plates were read on a Dynatech II microtiter plate reader.

[3] = system: monoclonal antibody 10-15-63; assay: Immunoprecipitation of 125I synthetic peptides by 10-15-63; type: binding, mouse; conditions: 10 ug/0.2 ml reaction mixture; 0.1% Triton X-100, 1.0% BSA, carrier serum; second antibody precipitation
Experimental: Synthetic peptides were radiolabeled with¹²⁵I (Amersham) by the chloramine T method (W.M. Hunter, "Radioimmunoassay" in D.M. Weir, Ed., Handbook of Experimental Immunology, [Blackwell Scientific Publications, 1973]). Generally, 2-6 ul of 100 mCi/ml ¹²⁵I were added to 10-50 ug of peptide in PBS, pH 7.4. Approximately 10 ug of freshly prepared (1 mg/ml in PBS) chloramine T were added to the mixture maintained at 4°C. After 5 min., [¹²⁵I]peptide was separated from free ¹²⁵I by passage of the reaction mixture through a 3 ml (bed volume) column of Biogel P-6 or P-2, as required. Fractions (200 ul each) containing [¹²⁵I]peptide were pooled and diluted into PBS containing 20% fetal calf serum. Rough estimations of¹²⁵I cpm bound to peptide were made by acid precipitation. […]
Synthetic peptides radiolabeled with¹²⁵I were diluted into PBS (pH 7.4) containing 0.1% Triton X-100 (or other detergents where indicated) and 1.0% BSA, to yield approximately 2.5-5 X 10⁵ acid-precipitable cpm per 0.1 ml. […] The precipitate was collected by centrifugation (2,000 x g, 5 min., 20°C), washed once in PBS containing 0.1% Triton X-100 and 1.0% BSA, collected by centrifugation, and counted in an LKB 128 gamma counter. […]

[4] = system: monoclonal antibody 5-21-3; assay: Immuno-dot blot of synthetic peptides with 5-21-3; type: binding, mouse; conditions: 25 ug/ml 5-21-3
Text: The western Blot procedure described in Example 1 was employed for development of immuno-dot blots using synthetic peptides, except that synthetic peptides were fixed to nitrocellulose by direct application using Drummond lambda pipettes, and air dried prior to blocking with 20% fetal calf serum in PBS (pH 7.4). Monoclonal IgG 5-21-3, and a second anti-HIV I gp41 monoclonal antibody (IgG) 10-15-63 (which recognizes an epitope distinct and separate from the epitope recognized by 5-21-3), were purified from mouse ascites using Protein A-Sepharose, and employed at the concentrations indicated.
Immuno-dot blot results are illustrated in Figure 5 where synthetic peptides were spotted onto nitrocellulose as follows:(A) 10 ug P58-130, (B) 10 ug P67-154,(C) 6 ug P121-154 and (D) 9 ug of P126-162. The strips were reacted with 25 ug/ml monoclonal antibody 5-21-3, 25 ug/ml monoclonal antibody 10-15-63, 25 ug/ml normal mouse IgG, 2% mouse (M) anti-rp41 serum, 2% normal mouse serum (NMS), 2% Rabbit (R) anti-P58-130 serum, or 2% normal rabbit serum (NRS).

[5] = system: monoclonal antibody 5-21-3; assay: Immunoprecipitation of 125I synthetic peptides by 5-21-3; type: binding, mouse
Experimental: as §1
Synthetic peptides radiolabeled with¹²⁵I were diluted into PBS (pH 7.4) containing 0.1% Triton X-100 (or other detergents where indicated) and 1.0% BSA, to yield approximately 2.5-5 X 10⁵ acid-precipitable cpm per 0.1 ml. Purified monoclonal IgG 5-21-3 and 10-15-63 were employed in the assay. Monoclonal antibodies were diluted into PBS containing 0.1% Triton X-100 (or other detergents where indicated), 1.0% BSA, and 2% normal mouse serum as a carrier immunoglobulin. Immune rabbit serum (anti-P58-130) was diluted appropriately into the same buffer except that normal rabbit serum (2%) was substituted for normal mouse serum as the carrier immunoglobulin. A reaction mixture comprising 0.1 ml [¹²⁵I] peptide (5 X l0⁵ cpm/0.1 ml) and 0.1 ml diluted antibody was incubated 1 hr at […], followed by addition of 0.1 ml of a precipitating antibody, either goat anti-mouse IgG, or goat anti-rabbit IgG, corresponding to the primary antibody. The reaction mixture was incubated 1 hr at […] and then overnight at 4°C. The precipitate was collected by centrifugation (2,000 x g, 5 min., 20°C), washed once in PBS containing 0.1% Triton X-100 and 1.0% BSA, collected by centrifugation, and counted in an LKB 128 gamma counter. […]

[6] = serum 20 ul/0.2 ml reaction mixture, 0.1% Triton X-100, 1.0% BSA, carrier serum, second antibody precipitation
[7] = 10 ug/0.2 ml reaction mixture, 0.1% Triton X-100, 1.0% BSA, carrier serum, second antibody precipitation

For “P121-154: synthetic peptide corresponding to gp41 amino acids 121-154 (DREINNYTSLIHSLIEESQNQQEKNEQELLELDK; Transmembrane protein gp41; UniProt P04578 632-665, looked up, fragment) [Peptide P121-154]”, the “precipitation by rabbit anti-P58-130” value ([1]; in words, summary of Table 4) was “strong precipitator”, the “SPECIFIC PRECIPITATION (CPM) RαP58-130” value [1, 6] was 310,419 CPM and the “x-fold increase of specific precipitation over non-specific precipitation, RαP58-130” value [1, 6] was 24 x-fold. The “binding inhibition activity restored by flanking sequence, relative to P131-154” value [2] was 20-65 fold, the “binding inhibition activity, fold less active than P67-154” value [2] was 20 fold and the “Molar Ratio” value ([2]; at 50% inhibition of 5-21-3 binding, mean of two experiments) was 1,494 pmoles peptide/pmoles 5-21-3. The “inhibition of 5-21-3 binding to rp41” value ([2]; in words (Fig. 6, Table 6)) was “potent inhibitor”, the “SPECIFIC PRECIPITATION (CPM) 10-15-63” value [3] was 371 CPM and the “x-fold increase of specific precipitation over non-specific precipitation, 10-15-63” value [3] was 1.3 x-fold. The “dot blot reactivity with antibody 5-21-3” value ([4]; mild washing procedures) was “faint, diffuse reaction”, the “dot blot reactivity with antibody 5-21-3” value ([4]; peptide spotted on nitrocellulose) was “difficult to demonstrate” and the “SPECIFIC PRECIPITATION (CPM) 5-21-3” value [5, 7] was 40,717 CPM. For the same substance, the “x-fold increase of specific precipitation over non-specific precipitation, 5-21-3” value [5, 7] was 31 x-fold, the “binding of the peptide by antibody 5-21-3” value ([5]; in words, summary of Table 4) was “provided an epitope which was recognized by 5-21-3” and the “5-21-3 concentration required to demonstrate reactivity against the peptide” value ([5]; summary of Table 5) was “at least 100 ug/ml”.
